Measured values published in PubChem BioAssay (NCI).
Values joined by “and” are separate entries in the source; they are usually repeats but may differ in a detail not shown here. Identical values can stand only once.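 How tested: cells in 96-well plates exposed to compound for 48 hours at five concentrations. The concentration for 50% growth inhibition is given as GI50. The concentration for full growth arrest is given as TGI.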

Legend:
Assay in all cases: growth of human tumour cells (NCI), 48 h
SF-268 CNS = system: SF-268 CNS
SNB-75 CNS = system: SNB-75 CNS
ACHN renal = system: ACHN renal
U251 CNS = system: U251 CNS
SK-MEL-28 melanoma = system: SK-MEL-28 melanoma
SK-MEL-2 melanoma = system: SK-MEL-2 melanoma
UO-31 renal = system: UO-31 renal
COLO 205 colon = system: COLO 205 colon
OVCAR-8 ovarian = system: OVCAR-8 ovarian
MALME-3M melanoma = system: MALME-3M melanoma

| SMILES | TGI (SF-268 CNS) [µM] | TGI (SNB-75 CNS) | TGI (ACHN renal) [µM] | TGI (U251 CNS) [µM] | TGI (SK-MEL-28 melanoma) [µM] | TGI (SK-MEL-2 melanoma) | TGI (UO-31 renal) [µM] | TGI (COLO 205 colon) [µM] | TGI (OVCAR-8 ovarian) | TGI (MALME-3M melanoma) [µM] | GI50 (SF-268 CNS) | GI50 (SNB-75 CNS) | GI50 (ACHN renal) | GI50 (U251 CNS) | GI50 (SK-MEL-28 melanoma) | GI50 (SK-MEL-2 melanoma) | GI50 (OVCAR-8 ovarian) | GI50 (UO-31 renal) [µM] | GI50 (COLO 205 colon) [µM] | GI50 (MALME-3M melanoma) [µM] |
| --- | --- | --- | --- | --- | --- | --- | --- | --- | --- | --- | --- | --- | --- | --- | --- | --- | --- | --- | --- | --- |
| CC1=NN(C(=O)c2ccc([N+](=O)[O-])cc2)C(=O)C1N=Nc1ccccc1C(=O)O (configuration not stated) | > 100 | > 100 µM | > 100 | > 100 | > 100 | > 100 µM | > 100 | > 100 | > 100 µM | > 100 |  |  |  |  |  |  |  |  |  |  |
| COc1ccc(-c2c3c(n(C4OC(COC(C)=O)C(OC(C)=O)C(OC(C)=O)C4OC(C)=O)c(=S)c2C#N)CC(C)(C)CC3=O)cc1 (configuration not stated) | > 100 | 97.9 µM and > 100 µM | > 100 | > 100 | > 100 | 76.4 µM and > 100 µM | > 100 | > 100 | 75.4 µM and > 100 µM | > 100 | 38.9 µM and > 100 µM | 25 µM and 67.8 µM | 46.2 µM and > 100 µM | 34.9 µM and > 100 µM | 42 µM and > 100 µM | 26.3 µM and > 100 µM | 22.1 µM and > 100 µM |  |  |  |
| CN1C(=O)C(=O)c2cc3c(c4c2c1cc1ccccc14)OCO3 | > 100 | > 100 µM | > 100 | > 100 | > 100 | > 100 µM | > 100 | 89.7 | > 100 µM | > 100 |  |  |  |  |  |  |  |  |  |  |
| Cc1cc(CC(C)CC(C)(C)C)n(O)c(=O)c1 (configuration not stated) (tested in a mixture with another compound) | 16.1 | 61.2 µM | > 37.6 | 13.9 | > 63.2 | > 100 µM | 7.01 | 59.6 | > 100 µM | 13 | 0.409 µM | 1.61 µM | 0.385 µM | 0.4 µM | 0.548 µM | 0.766 µM | 0.41 µM | 0.379 | 13.4 | 0.482 |
